PMC6277767, “Broad and Region-Specific Impacts of the Synthetic Cannabinoid CP 55,940 in Adolescent and Adult Female Mouse Brains” (Frontiers in Molecular Neuroscience, 2018)

Tested on: CD1 female mouse brain lipidome
Assay: Brain-region lipid levels (HPLC/MS/MS lipidomics) 2 h after single i.p. 3 mg/kg CP 55,940 vs vehicle
Format: in vivo
Description: The Bloomington Institutional Animal Care and Use Committee of Indiana University reviewed and approved the animal procedures. Female mice from the CD1 strain were utilized to match our study examining THC’s effects on the brain lipidome ([Leishman et al., 2018]). Mice were given a single i.p. injection of either 3 mg/kg CP or 1:1:18 cremophor:ethanol:saline vehicle (please refer to the section “3 mg/kg CP Is Relevant for Synthetic Cannabinoid Abuse and Has Stronger Effects on the Female Mouse Brain Lipidome During Adolescence” for a justification of dose and use of female mice). Three different age groups were given injections: PND 35 and PND 50 adolescents, and adult mice (PND 113). At least eight mice in each age group received CP and at least eight received vehicle. Matching the THC study time course ([Leishman et al., 2018]), mice were sacrificed via rapid decapitation 2 h after injection. Brains were immediately removed and flash-frozen in liquid nitrogen, and then stored at -80°C until dissections were performed. Brains were dissected on an ice-cold dissection plate into the following regions: STR, HIPP, CER, THAL, CTX, HYP, MID, and STEM. These abbreviations for these brain areas will be used exclusively when discussing the results generated by these specific dissections. Each dissected area was immediately placed in liquid nitrogen and then stored at -80°C until used for lipid extraction.
Tissue extracts were performed as previously described ([Bradshaw et al., 2006]; [Stuart et al., 2013]; [Raboune et al., 2014]; [Leishman et al., 2016a],[b], [2017], [2018]). First, samples were shock frozen in liquid nitrogen, weighed, and transferred to a centrifuge tube. The mass of the largest sample was multiplied by 50 to determine how many milliliters of HPLC-grade methanol (Fisher, Fair Lawn, NJ, United States) to add. Then, samples were spiked with 500 pmol deuterium-labeled NAGly (d8NAGly; Cayman Chemical, Ann Arbor, MI, United States). Samples were placed on ice in darkness for 2 h then individually homogenized and centrifuged at 19,000 × g for 20 min at 20°C. Supernatants were diluted with HPLC water (purified in house) to make a solution of 75% water, 25% supernatant. Lipids were partially purified on C18 solid phase extraction columns (Agilent, Palo Alto, CA, United States). A series of four elutions with 1.5 mL of 60%, 75%, 85%, and 100% methanol were collected ([Stuart et al., 2013]; [Leishman et al., 2016a],[b], [2018]).
As previously described ([Bradshaw et al., 2006]; [Tan et al., 2006]; [Smoum et al., 2010]; [Stuart et al., 2013]; [Tortoriello et al., 2013]; [Raboune et al., 2014]; [Leishman et al., 2016a],[b], [2017], [2018]), samples were analyzed using an Applied Biosystems API 3000 triple quadrupole mass spectrometer with electrospray ionization (Foster City, CA, United States). Using an Agilent XDB-C18 reversed phase analytical column and optimized mobile phase gradients, 20 μL from each elution were chromatographed. Two Shimadzu 10ADvp pumps (Columbia, MD, United States) provided the pressure for gradient elution. Mobile phase A: 20% methanol, 80% water (v/v) and 1 mM ammonium acetate (Sigma, St. Louis, MO, United States). Mobile phase B: 100% methanol, 1 mM ammonium acetate. Every method run began with 0% mobile phase B, reached 100% mobile phase B flowing at 0.2 mL/min, and gradually returned to 0% mobile phase B.
This screening library will be referred to as the lipidome when discussing data from this study. HPLC/MS/MS data were analyzed using Analyst software (Applied Biosystems) ([Bradshaw et al., 2006]; [Tan et al., 2006]; [Stuart et al., 2013]; [Tortoriello et al., 2013]; [Raboune et al., 2014]; [Leishman et al., 2016a],[b], [2017], [2018]). Chromatograms (Supplementary Figure 3) were generated by determining the retention time of analytes from the analytical column with a [M-1] or [M+1] parent peak and a fragmentation peak corresponding to the programmed values. […]

SMILES: CCCCCCC(C)(C)c1ccc([C@@H]2C[C@H](O)CC[C@H]2CCCO)c(O)c1 [CP 55,940]
- changes in lipid levels that were decreases (PND 50 MID): two
- number of lipids changed (PND 50 MID, 62 detected): 26
- 2-linoleoyl glycerol level vs vehicle (PND 50 STEM): ↓ (1-1.49 times lower than vehicle)
- 2-oleoyl glycerol level vs vehicle (PND 50 STEM): ↓ (1-1.49 times lower than vehicle)
- 2-palmitoyl glycerol level vs vehicle (PND 50 STEM): ↓ (1-1.49 times lower than vehicle)
- 6-ketoPGF1α level vs vehicle (PND 50 STEM): ↓ (1-1.49 times lower than vehicle)
- Linoleic acid level vs vehicle (PND 50 STEM): ↓ (1-1.49 times lower than vehicle)
- N-arachidonoyl GABA level vs vehicle (PND 50 STEM): ↓ (1-1.49 times lower than vehicle)
- N-arachidonoyl phenylalanine level vs vehicle (PND 50 STEM): ↑ (1-1.49 times higher than vehicle)
- N-arachidonoyl serine level vs vehicle (PND 50 STEM): ↓ (1-1.49 times lower than vehicle)
- N-arachidonoyl taurine level vs vehicle (PND 50 STEM): ↓ (1-1.49 times lower than vehicle)
- N-arachidonoyl tyrosine level vs vehicle (PND 50 STEM): ↓ (1-1.49 times lower than vehicle)
- N-oleoyl methionine level vs vehicle (PND 50 STEM): ↓ (1-1.49 times lower than vehicle)
- N-palmitoyl leucine level vs vehicle (PND 50 STEM): ↑ (1-1.49 times higher than vehicle)
- N-palmitoyl tyrosine level vs vehicle (PND 50 STEM): ↑ (1-1.49 times higher than vehicle)
- Oleic Acid level vs vehicle (PND 50 STEM): ↓ (1-1.49 times lower than vehicle)
- PGE2 level vs vehicle (PND 50 STEM): ↓ (1-1.49 times lower than vehicle)
- PGF2α level vs vehicle (PND 50 STEM): ↓ (1-1.49 times lower than vehicle)
- 2-arachidonoyl glycerol level vs vehicle (PND 50 STR): ↓ (1-1.49 times lower than vehicle)
- 2-linoleoyl glycerol level vs vehicle (PND 50 STR): ↓ (1-1.49 times lower than vehicle)
- Arachidonic acid level vs vehicle (PND 50 STR): ↓ (1-1.49 times lower than vehicle)
- Linoleic acid level vs vehicle (PND 50 STR): ↓ (1-1.49 times lower than vehicle)
- N-arachidonoyl GABA level vs vehicle (PND 50 STR): ↓ (1-1.49 times lower than vehicle)
- N-arachidonoyl glycine level vs vehicle (PND 50 STR): ↓↓ (1.50-1.99 times lower than vehicle)
- N-arachidonoyl phenylalanine level vs vehicle (PND 50 STR): ↓ (1-1.49 times lower than vehicle)
- N-arachidonoyl taurine level vs vehicle (PND 50 STR): ↓ (1-1.49 times lower than vehicle)
- N-docosahexaenoyl GABA level vs vehicle (PND 50 STR): ↓ (1-1.49 times lower than vehicle)
- N-docosahexaenoyl glycine level vs vehicle (PND 50 STR): ↓↓ (1.50-1.99 times lower than vehicle)
- N-palmitoyl leucine level vs vehicle (PND 50 STR): ↑ (1-1.49 times higher than vehicle)
- N-palmitoyl tyrosine level vs vehicle (PND 50 STR): ↑ (1-1.49 times higher than vehicle)
- N-palmitoyl valine level vs vehicle (PND 50 STR): ↑↑ (1.50-1.99 times higher than vehicle)
- Oleic Acid level vs vehicle (PND 50 STR): ↓ (1-1.49 times lower than vehicle)
- PGF2α level vs vehicle (PND 50 STR): ↑ (1-1.49 times higher than vehicle)
- 2-arachidonoyl glycerol level vs vehicle (PND 50 THAL): ↓ (1-1.49 times lower than vehicle)
- 2-linoleoyl glycerol level vs vehicle (PND 50 THAL): ↓ (1-1.49 times lower than vehicle)
- 2-oleoyl glycerol level vs vehicle (PND 50 THAL): ↓ (1-1.49 times lower than vehicle)
- 6-ketoPGF1α level vs vehicle (PND 50 THAL): ↑↑ (1.50-1.99 times higher than vehicle)
- Arachidonic acid level vs vehicle (PND 50 THAL): ↓ (1-1.49 times lower than vehicle)
- Linoleic acid level vs vehicle (PND 50 THAL): ↓ (1-1.49 times lower than vehicle)
- N-arachidonoyl GABA level vs vehicle (PND 50 THAL): ↓ (1-1.49 times lower than vehicle)
- N-arachidonoyl ethanolamine level vs vehicle (PND 50 THAL): ↓ (1-1.49 times lower than vehicle)
- N-arachidonoyl glycine level vs vehicle (PND 50 THAL): ↓↓ (1.50-1.99 times lower than vehicle)
- N-arachidonoyl phenylalanine level vs vehicle (PND 50 THAL): ↓↓ (1.50-1.99 times lower than vehicle)
- N-arachidonoyl taurine level vs vehicle (PND 50 THAL): ↓ (1-1.49 times lower than vehicle)
- N-arachidonoyl tyrosine level vs vehicle (PND 50 THAL): ↓ (1-1.49 times lower than vehicle)
- N-docosahexaenoyl GABA level vs vehicle (PND 50 THAL): ↓ (1-1.49 times lower than vehicle)
- N-linoleoyl GABA level vs vehicle (PND 50 THAL): ↓↓ (1.50-1.99 times lower than vehicle)
- N-palmitoyl leucine level vs vehicle (PND 50 THAL): ↑ (1-1.49 times higher than vehicle)
- N-palmitoyl serine level vs vehicle (PND 50 THAL): ↓ (1-1.49 times lower than vehicle)
- N-stearoyl serine level vs vehicle (PND 50 THAL): ↓ (1-1.49 times lower than vehicle)
- Oleic Acid level vs vehicle (PND 50 THAL): ↓ (1-1.49 times lower than vehicle)
- PGE2 level vs vehicle (PND 50 THAL): ↓ (1-1.49 times lower than vehicle)
- PGF2α level vs vehicle (PND 50 THAL): ↓ (1-1.49 times lower than vehicle)
- changes in NAEs (all decreases) (PND 50 brain): 16
- changes in lipoamines derived from AA (PND 50 brain): 41
- decreases in 2-acyl glycerol levels (PND 50 brain): 17
- decreases in PG levels (PND 50 brain): 11
- decreases in free fatty acid levels (PND 50 brain): 16
- increases in PG levels (PND 50 brain): 7
- percentage of detected lipids modified with acute CP (PND 50 brain, 450 detected): 31.33%
- total changes in lipid levels across the eight regions (adult): 97
- 2-arachidonoyl glycerol level vs vehicle (adult CER): ↓ (1-1.49 times lower than vehicle)
- 2-linoleoyl glycerol level vs vehicle (adult CER): ↓↓ (1.50-1.99 times lower than vehicle)
- 2-oleoyl glycerol level vs vehicle (adult CER): ↓ (1-1.49 times lower than vehicle)
- 6-ketoPGF1α level vs vehicle (adult CER): ↓ (1-1.49 times lower than vehicle)
- Arachidonic acid level vs vehicle (adult CER): ↓ (1-1.49 times lower than vehicle)
- Linoleic acid level vs vehicle (adult CER): ↓↓ (1.50-1.99 times lower than vehicle)
- N-arachidonoyl GABA level vs vehicle (adult CER): ↓↓ (1.50-1.99 times lower than vehicle)
- N-arachidonoyl ethanolamine level vs vehicle (adult CER): ↓↓ (1.50-1.99 times lower than vehicle)
- N-arachidonoyl phenylalanine level vs vehicle (adult CER): ↓↓↓ (2-2.99 times lower than vehicle)
- N-arachidonoyl taurine level vs vehicle (adult CER): ↓ (1-1.49 times lower than vehicle)
- N-docosahexaenoyl GABA level vs vehicle (adult CER): ↓ (1-1.49 times lower than vehicle)
- N-docosahexaenoyl ethanolamine level vs vehicle (adult CER): ↓ (1-1.49 times lower than vehicle)
- N-linoleoyl GABA level vs vehicle (adult CER): ↓ (1-1.49 times lower than vehicle)
- N-linoleoyl ethanolamine level vs vehicle (adult CER): ↓↓ (1.50-1.99 times lower than vehicle)
- N-oleoyl serine level vs vehicle (adult CER): ↓ (1-1.49 times lower than vehicle)
- N-oleoyl valine level vs vehicle (adult CER): ↑↑↑ (2-2.99 times higher than vehicle)
- N-palmitoyl tyrosine level vs vehicle (adult CER): ↓ (1-1.49 times lower than vehicle)
- Oleic Acid level vs vehicle (adult CER): ↓↓ (1.50-1.99 times lower than vehicle)
- PGE2 level vs vehicle (adult CER): ↓ (1-1.49 times lower than vehicle)
- PGF2α level vs vehicle (adult CER): ↓ (1-1.49 times lower than vehicle)
- changes in lipid levels that were decreases (adult CER): 20
- changes in lipid levels that were increases (adult CER): 1
- phosphoLEA level vs vehicle (adult CER): ↓ (1-1.49 times lower than vehicle)
- number of lipids changed (adult CER, 53 detected): 21
- 2-linoleoyl glycerol level vs vehicle (adult CTX): ↓ (1-1.49 times lower than vehicle)
- 6-ketoPGF1α level vs vehicle (adult CTX): ↓ (1-1.49 times lower than vehicle)
- Arachidonic acid level vs vehicle (adult CTX): ↓ (1-1.49 times lower than vehicle)
- N-arachidonoyl taurine level vs vehicle (adult CTX): ↓ (1-1.49 times lower than vehicle)
- N-linoleoyl GABA level vs vehicle (adult CTX): ↓ (1-1.49 times lower than vehicle)
- N-palmitoyl valine level vs vehicle (adult CTX): ↑ (1-1.49 times higher than vehicle)
- N-stearoyl phenylalanine level vs vehicle (adult CTX): ↓↓ (1.50-1.99 times lower than vehicle)
- PGF2α level vs vehicle (adult CTX): ↓ (1-1.49 times lower than vehicle)
- number of lipids changed (adult CTX, 58 detected): eight
- 2-linoleoyl glycerol level vs vehicle (adult HIPP): ↓ (1-1.49 times lower than vehicle)
- N-arachidonoyl GABA level vs vehicle (adult HIPP): ↓ (1-1.49 times lower than vehicle)
- N-arachidonoyl alanine level vs vehicle (adult HIPP): ↓ (1-1.49 times lower than vehicle)
- N-arachidonoyl glycine level vs vehicle (adult HIPP): ↓ (1-1.49 times lower than vehicle)
- N-arachidonoyl phenylalanine level vs vehicle (adult HIPP): ↓↓ (1.50-1.99 times lower than vehicle)
- N-docosahexaenoyl GABA level vs vehicle (adult HIPP): ↓ (1-1.49 times lower than vehicle)
- N-oleoyl GABA level vs vehicle (adult HIPP): ↓ (1-1.49 times lower than vehicle)
- N-oleoyl phenylalanine level vs vehicle (adult HIPP): ↓ (1-1.49 times lower than vehicle)
